Assay results from BindingDB's records for patent US20250270173 (Gilgamesh Pharmaceuticals, 2025).

These compounds were tested against 5-hydroxytryptamine receptor 2A (Homo sapiens, UniProt P28223) (assay: 5-HT2A Receptor Binding Assay).
5-hydroxytryptamine receptor 2A, sequence (P28223 whole entry): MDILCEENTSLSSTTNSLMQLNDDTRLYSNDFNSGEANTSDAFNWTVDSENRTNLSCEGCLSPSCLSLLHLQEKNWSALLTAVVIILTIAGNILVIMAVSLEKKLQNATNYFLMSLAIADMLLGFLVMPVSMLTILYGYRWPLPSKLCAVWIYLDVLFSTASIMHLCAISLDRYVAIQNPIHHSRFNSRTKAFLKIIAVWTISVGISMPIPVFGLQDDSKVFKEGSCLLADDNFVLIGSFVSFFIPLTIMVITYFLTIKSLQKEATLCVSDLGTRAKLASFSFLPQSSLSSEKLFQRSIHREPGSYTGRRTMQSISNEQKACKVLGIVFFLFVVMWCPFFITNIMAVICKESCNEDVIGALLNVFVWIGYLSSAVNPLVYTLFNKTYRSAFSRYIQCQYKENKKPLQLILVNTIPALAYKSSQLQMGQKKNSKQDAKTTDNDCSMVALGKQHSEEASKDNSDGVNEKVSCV

Point of comparison: `CCCCCc1nc(OC)c(CC(N)CC)cc1OC` (configuration not stated) [US20250270173, Compound 11], Ki 273 nM. Against it:
- COc1cc(C)c(OC)nc1CC(C)N (configuration not stated) [US20250270173, Compound 5] — 4.3-fold higher, 1170 nM
- COc1cc(Br)c(OC)nc1CC(C)N (configuration not stated) [US20250270173, Compound 6] — 1.6-fold lower, 168 nM
- COc1cc(C)c(OC)nc1CCN [US20250270173, Compound 8] — 4.1-fold higher, 1120 nM
- COc1cc(Br)c(OC)nc1CCN [US20250270173, Compound 9] — 2.8-fold lower, 99.2 nM
- CCCCCc1nc(OC)c(CC(N)CC)nc1OC (configuration not stated) [US20250270173, Compound 12] — 2.5-fold higher, 693 nM
- CCSc1cc(OC)c(CCN)nc1OC [US20250270173, Compound 22] — 3.3-fold lower, 82.8 nM
- CCSc1cc(OC)c(CC(C)N)nc1OC (configuration not stated) [US20250270173, Compound 23] — within 1.5-fold, 344 nM
- CCSc1cc(OC)c(CC(N)CC)nc1OC (configuration not stated) [US20250270173, Compound 24] — 2.4-fold higher, 649 nM
- COc1cc(C2CC2)c(OC)nc1CCN [US20250270173, Compound 26] — 1.8-fold lower, 150 nM
- CCCCCCc1cc(OC)c(CCN)nc1OC [US20250270173, Compound 29] — 300-fold lower, 0.91 nM
- CCCc1cc(OC)c(CC(N)CC)nc1OC (configuration not stated) [US20250270173, Compound 37] — 2.6-fold lower, 106 nM
